Laboratory results taken from patent US20230265151A1, “GIP/GLP1 CO-AGONIST COMPOUNDS” (priority 2020, published 2023).
Where two headings read alike, the source gives them in different places. *1 amine or outer side, *2 acyl side, *3 side chain or, on linkers, in order; H or OH if unused. Where a SMILES comes first, the peptide text is derived from it. Side-chain parts run from the residue outwards. [ ]: non-standard residue; d: D form. The star is where a group is joined. αMePhe(2-F) = C[C@](N)(Cc1ccccc1F)C(=O)O; γGlu = O=C(O)[C@H](CCC(=O)[*:2])N[*:1]; C14 diacid = O=C(O)CCCCCCCCCCCCC(=O)*; αMeY = C[C@](N)(Cc1ccc(O)cc1)C(=O)O; αMeF = C[C@](N)(Cc1ccccc1)C(=O)O; 4Pal = N[C@@H](Cc1ccncc1)C(=O)O; αMeL = CC(C)C[C@](C)(N)C(=O)O; Orn = NCCC[C@H](N)C(=O)O; AEEA = NCCOCCOCC(=O)O; Aib = CC(C)(N)C(=O)O

Tests used:
Type in all cases: cell-based
[1] = target: T1, hGIPR (Homo sapiens, UniProt P48546); assay: Functional cAMP formation (HTRF) in HEK-293 clonal cells expressing hGIPR, 0.1% bovine casein, without or with 1.0% human serum albumin; details: for Emax: 37° C., read-out: hGIPR Emax, % ± SEM; for EC50: cAMP, incubated at 37° C., 0.1% bovine casein (no human serum albumin), geometric mean, read-out: hGIPR EC50, nM (SEM, n)
T1 construct: expressed in transfected cells
T1 sequence (P48546 22-466): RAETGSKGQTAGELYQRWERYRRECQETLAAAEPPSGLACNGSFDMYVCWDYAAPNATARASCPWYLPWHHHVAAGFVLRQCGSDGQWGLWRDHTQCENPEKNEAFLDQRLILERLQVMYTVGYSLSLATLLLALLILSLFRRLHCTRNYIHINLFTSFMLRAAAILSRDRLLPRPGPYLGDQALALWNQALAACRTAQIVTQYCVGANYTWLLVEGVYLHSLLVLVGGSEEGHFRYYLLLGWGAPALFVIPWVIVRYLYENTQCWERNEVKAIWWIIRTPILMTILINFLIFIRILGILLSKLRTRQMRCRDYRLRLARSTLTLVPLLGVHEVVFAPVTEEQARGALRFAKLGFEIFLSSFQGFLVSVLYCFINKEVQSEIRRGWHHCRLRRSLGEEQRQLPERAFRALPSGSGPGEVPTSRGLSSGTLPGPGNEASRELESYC
Procedure, shortened: (§1)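 Cells were stimulated with peptide for 30 min at 37° C, then intracellular cAMP was measured by competitive HTRF (665/620 nm ratio) and converted to nM using a cAMP standard curve. Relative EC50 and Emax came from four-parameter logistic fits of percent maximal response against peptide concentration.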

[2] = target: hGLP-1R (Homo sapiens, UniProt P43220); assay: Functional cAMP formation (HTRF) in HEK-293 clonal cells expressing hGLP-1R, 0.1% bovine casein, without or with 1.0% human serum albumin; parameters: expressed in transfected cells; details: for Emax: HEK293, percent of maximal response to GLP-1(7-36)NH2, 37° C., 0.1% bovine casein, arithmetic mean, read-out: hGLP-1R Emax, % ± SEM
Chain of hGLP-1R (P43220 24-463): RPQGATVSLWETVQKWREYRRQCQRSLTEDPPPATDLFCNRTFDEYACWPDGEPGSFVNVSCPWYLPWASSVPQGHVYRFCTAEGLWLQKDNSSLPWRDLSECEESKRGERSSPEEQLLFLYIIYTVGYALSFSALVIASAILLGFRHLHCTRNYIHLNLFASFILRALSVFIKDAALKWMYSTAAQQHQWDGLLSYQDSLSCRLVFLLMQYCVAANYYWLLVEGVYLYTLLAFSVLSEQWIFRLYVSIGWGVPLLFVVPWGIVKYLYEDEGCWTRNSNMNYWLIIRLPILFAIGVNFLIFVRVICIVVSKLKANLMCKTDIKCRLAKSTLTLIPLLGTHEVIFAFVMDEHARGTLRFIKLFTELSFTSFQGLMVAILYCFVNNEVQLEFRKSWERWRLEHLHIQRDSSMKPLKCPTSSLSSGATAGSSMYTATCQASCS
Procedure, shortened: as §1

[3] = target: T2, hGCGR (Homo sapiens, UniProt P47871); assay: Functional cAMP formation (HTRF) in HEK-293 clonal cells expressing hGCGR, 0.1% bovine casein, without or with 1.0% human serum albumin; details: geometric mean, read-out: hGCGR EC50, nM (SEM, n)
T2 construct: expressed in transfected cells
T2 sequence (P47871 26-477): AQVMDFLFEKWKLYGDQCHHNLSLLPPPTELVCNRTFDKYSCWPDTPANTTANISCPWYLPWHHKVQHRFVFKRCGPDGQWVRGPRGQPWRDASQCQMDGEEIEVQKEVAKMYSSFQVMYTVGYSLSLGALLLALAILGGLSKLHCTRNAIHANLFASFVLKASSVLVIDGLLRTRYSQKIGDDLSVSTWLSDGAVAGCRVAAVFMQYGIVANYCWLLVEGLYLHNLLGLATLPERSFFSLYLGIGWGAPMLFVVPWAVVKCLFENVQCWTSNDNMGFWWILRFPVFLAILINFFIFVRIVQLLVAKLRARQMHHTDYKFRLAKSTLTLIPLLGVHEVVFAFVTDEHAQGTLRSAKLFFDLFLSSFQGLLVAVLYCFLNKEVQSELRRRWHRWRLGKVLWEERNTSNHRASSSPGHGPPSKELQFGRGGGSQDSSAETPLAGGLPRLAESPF
Procedure, shortened: as §1

[4] = cAMP, incubated at 37° C., 0.1% bovine casein (no human serum albumin)

CC[C@H](C)[C@H](NC(=O)[C@H](CC(C)C)NC(=O)[C@](C)(Cc1ccccc1)NC(=O)[C@H](CCC(=O)O)NC(=O)[C@@H](NC(=O)[C@H](Cc1ccccc1)NC(=O)[C@H](CCC(=O)O)NC(=O)C(C)(C)NC(=O)[C@H](CCC(N)=O)NC(=O)[C@H](C)NC(=O)[C@H](CCCCNC(=O)COCCOCCNC(=O)COCCOCCNC(=O)CC[C@H](NC(=O)CCCCCCCCCCCCC(=O)O)C(=O)O)NC(=O)[C@H](CCCN)NC(=O)[C@H](CC(=O)O)NC(=O)[C@H](CC(C)C)NC(=O)[C@](C)(CC(C)C)NC(=O)[C@@H](NC(=O)[C@H](CO)NC(=O)[C@H](Cc1ccncc1)NC(=O)[C@H](CC(=O)O)NC(=O)[C@H](CO)NC(=O)[C@@H](NC(=O)[C@](C)(Cc1ccccc1F)NC(=O)[C@@H](NC(=O)CNC(=O)[C@H](CCC(=O)O)NC(=O)C(C)(C)NC(=O)[C@@H](N)Cc1ccc(O)cc1)[C@@H](C)O)[C@@H](C)O)[C@@H](C)CC)[C@@H](C)CC)C(=O)N[C@@H](CCC(=O)O)C(=O)NCC(=O)NCC(=O)N[C@@H](CCCCNC(=O)COCCOCCNC(=O)COCCOCCNC(=O)CC[C@H](NC(=O)CCCCCCCCCCCCC(=O)O)C(=O)O)C(=O)N[C@@H](CO)C(=O)N[C@@H](CO)C(=O)NCC(=O)N[C@@H](C)C(=O)N1CCC[C@H]1C(=O)N1CCC[C@H]1C(=O)N1CCC[C@H]1C(=O)N[C@@H](CO)C(N)=O [Example 159] (H-Y[Aib]EGT[αMePhe(2-F)]TSD[4Pal]SI[αMeL]LD[Orn]K([AEEA-AEEA-γGlu-C14 diacid])AQ[Aib]EFIE[αMeF]LIEGGK([AEEA-AEEA-γGlu-C14 diacid])SSGAPPPS-NH2) was tested, and the Emax ([1]; HEK293, percent of maximal response to GIP(1-42)NH2, 0.1% bovine casein, arithmetic mean) was 95.3%, the EC50 [1] was 0.0198 nM and the Emax [2] was 89.4%. It also gave an EC50 [3, 4] of over 9950 nM.

For CC[C@H](C)[C@H](NC(=O)[C@H](CCCN)NC(=O)[C@H](CC(=O)O)NC(=O)[C@H](CC(C)C)NC(=O)[C@](C)(CC(C)C)NC(=O)[C@@H](NC(=O)C(C)(C)NC(=O)[C@H](Cc1ccc(O)cc1)NC(=O)[C@H](CC(=O)O)NC(=O)[C@H](CO)NC(=O)[C@@H](NC(=O)[C@](C)(Cc1ccccc1F)NC(=O)[C@@H](NC(=O)CNC(=O)[C@H](CCC(=O)O)NC(=O)C(C)(C)NC(=O)[C@@H](N)Cc1ccc(O)cc1)[C@@H](C)O)[C@@H](C)O)[C@@H](C)CC)C(=O)N[C@@H](C)C(=O)N[C@@H](CCC(N)=O)C(=O)NC(C)(C)C(=O)N[C@@H](CCCCNC(=O)COCCOCCNC(=O)COCCOCCNC(=O)CC[C@H](NC(=O)CCCCCCCCCCCCC(=O)O)C(=O)O)C(=O)N[C@@H](Cc1ccccc1)C(=O)N[C@H](C(=O)N[C@H](CCC(=O)O)C(=O)N[C@@](C)(Cc1ccc(O)cc1)C(=O)N[C@@H](CC(C)C)C(=O)N[C@H](C(=O)N[C@@H](CCCCNC(=O)COCCOCCNC(=O)COCCOCCNC(=O)CC[C@H](NC(=O)CCCCCCCCCCCCC(=O)O)C(=O)O)C(=O)NCC(=O)NCC(=O)N1CCC[C@H]1C(=O)N[C@@H](CO)C(=O)N[C@@H](CO)C(=O)NCC(=O)N[C@@H](C)C(=O)N1CCC[C@H]1C(=O)N1CCC[C@H]1C(=O)N1CCC[C@H]1C(=O)N[C@@H](CO)C(N)=O)[C@@H](C)CC)[C@@H](C)CC [Example 234] (H-Y[Aib]EGT[αMePhe(2-F)]TSDY[Aib]I[αMeL]LD[Orn]IAQ[Aib]K([AEEA-AEEA-γGlu-C14 diacid])FI[dE][αMeY]LIK([AEEA-AEEA-γGlu-C14 diacid])GGPSSGAPPPS-NH2; N-terminus assumed), the Emax ([1]; HEK293, 0.1% bovine casein and 1.0% human serum albumin, percent of maximal response to GIP(1-42)NH2) was 84.4%, the EC50 [1] was 0.0182 nM and the Emax [2] was 112%. The EC50 ([2]; cAMP, incubated at 37° C., 0.1% bovine casein (no human serum albumin), geometric mean, read-out: hGLP-1R EC50, nM (SEM, n)) was 0.319 nM, the EC50 ([3]; 0.1% bovine casein and 1.0% human serum albumin, 37° C.) was over 9950 nM and the EC50 [3, 4] was over 9950 nM.
